Experimental data taken from patent US9670255B2 (priority 2013, dated 2017).

Assays:
[1] = target: LISA314 WT; assay: Affinity analysis by SPR (Biacore assay), LISA314 WT; format: binding, Streptomyces avidinii; conditions: SPR Biacore T100, protein immobilized on Sensor Chip NTA, equilibrium value analysis, read-out: Dissociation constant: KD
Experimental: (§1) For affinity analysis, Biacore T100 was used. Specifically, the protein that had been fractionated by gel filtration chromatography was immobilized using Sensor Chip NTA. As a running buffer, 0.5% Tween20, HBS-P+ was used. Immobilization of the protein on nickel NTA and ligand capture were carried out according to the template program included therewith.
(§2) The amount of a ligand immobilized on a sensor chip was adjusted within the range of 1608 RU to 8042 RU, so as to suppress mass transport limitation. As analytes, biocytin and Compound 29 (the structure thereof is shown below) synthesized in Example 1 were used. It is to be noted that biocytin is a main existence form of biotin.
(§3) With regard to the concentrations of the analytes, in the case of biocytin, eight 2-fold dilution series were prepared from 1 μM, and in the case of Compound 29, twelve 2-fold dilution series were prepared from 16 μM. The measurement was carried out at a flow rate of 30 μl/min, for a contact time of 120 seconds, and for a dissociation time of 600 seconds. For the analysis of the data, sensorgrams for all concentrations were incorporated into analysis software, the equilibrium value analysis was then carried out, and the dissociation constant KD was then calculated.

[2] = target: LISA314 V21 (Streptomyces avidinii, UniProt P22629, E125D/E140N/N47D/R108K/R127K/S51D/Y107S/Y46S); assay: Affinity analysis by SPR (Biacore assay), LISA314 V21; format: binding; conditions: SPR Biacore T100, protein immobilized on Sensor Chip NTA, equilibrium value analysis, read-out: Dissociation constant: KD
Sequence of LISA314 V21 (P22629 25-183 Y46S/N47D/S51D/Y107S/R108K/E125D/R127K/E140N limits assumed): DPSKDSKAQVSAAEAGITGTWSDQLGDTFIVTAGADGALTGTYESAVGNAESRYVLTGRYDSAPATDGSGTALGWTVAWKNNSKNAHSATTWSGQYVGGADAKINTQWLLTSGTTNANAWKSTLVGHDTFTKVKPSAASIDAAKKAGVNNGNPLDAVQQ
Experimental: as §1, §2, §3

## N[C@@H](CCCCNC(=O)CCCC[C@@H]1SC[C@@H]2NC(=O)N[C@@H]21)C(=O)O [Biocytin, biocytin]
[1]
  Kd: 2.38 nM
[2]
  Kd: 348 nM
